Binding rate and IC50 data for 14 compounds are collected here from patent US20240246968A1, “SMALL MOLECULE INHIBITORS OF KRAS G12C MUTANT” (Merck Sharp & Dohme LLC, priority 2021, published 2024).

The target in assay [1] is Gppcp-bound recombinant K-Ras4B G12C mutant protein (amino acids 1-169, C51S/C80L/C118S) (Homo sapiens, UniProt P01116, C118S/C51S/C80L/G12C). The experiment in a line: KRASG12C binding assay (LC-MS, compound binding rate). Particulars: test compound final concentration 0.5 μM, 25° C., 1 hour. A digest of the protocol:
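Covalent adduct formation measured by deconvoluted intact-mass LC-MS after 1 h at 25 °C with compound at 0.5 μM final and 50 nM Gppcp-loaded KRAS G12C (residues 1-169, C51S/C80L/C118S). Buffer: TBS, 0.1 mM TCEP, 0.25 mM MgCl2, 50 μM Gppcp. Binding % = one-molecule adduct/(unbound + all adducts), binned A ≥80, B 60–80, C 40–60, D 20–40, E <20.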

Assay [2] deals with T1, interaction between recombinant K-Ras4B G12C mutant protein and cRAF RAS-binding domain (cRAF-RBD) (Homo sapiens, UniProt P01116, G12C).
T1 construct: made in house; host or cells: E. coli
The experiment in a line: Inhibitory activity on interaction between KRAS G12C and cRAF (Alpha technology). The settings on record: GMPPNP-bound KRAS G12C incubated with compound at 25° C. for 1 hour, then cRAF-RBD; Alpha signal. It counts as biochemical. A digest of the protocol: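 Alpha readout of cRAF-RBD (aa 50-132) binding to KRAS G12C (aa 1-169) after 1.5 h RT, following 1 h, 25° C compound preincubation with GMPPNP-bound protein (pH 7.5 Tris, 1 mM MgCl2, TCEP, Tween 20). IC50 fitted from titrations, with GDP-bound KRAS as 100% and DMSO as 0% inhibition.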

Another assay relates to MIA PaCa-2 cells. The experiment in a line: Growth inhibition activity on KRAS-G12C mutant cell line (MIA PaCa-2), CellTiter-Glo 3D. The settings on record: MIA PaCa-2, 3-day culture with compound. It counts as cell-based, human. A digest of the protocol:
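Luminescence readout (CellTiter-Glo 3D) after 3 days of compound treatment at 37 °C, 5% CO2, 0.2% final DMSO, gave % growth inhibition versus no-compound wells, from which IC50 (nM) was derived; cells had been plated in 10% FBS RPMI1640 one day before dosing.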

By IC50 is commonly meant the concentration that inhibits the measured activity by half. On to `COc1c(-c2cccn3c(C(=O)c4cc(F)c(NC(=O)/C=C/CNC5CCOCC5)c(F)c4)ccc23)c(C(F)(F)F)cc2c1nc(C)n2C` (single isomer, unassigned) [Example 61-1, (E)-N-(2,6-difluoro-4-(8-(4-methoxy-1,2-dimethyl-6-(trifluoromethyl)-1H-benzo[d]imidazol-5-yl)indolizine-3-carbonyl)phenyl)-4-((tetrahydro-2H-pyran-4-yl)amino)but-2-enamide], for which, in assay [1], the binding rate result was “B (a binding rate of 60% or more and less than 80% is rated “B”)”. For the same compound, the half-maximal inhibitory concentration (IC50) in assay [2] came out at 1900 nM; in the assay on MIA PaCa-2 cells it was 2300 nM.

On to `COc1c(-c2cccn3c(C(=O)c4cc(F)c(NC(=O)/C=C/CNC5CCOCC5)c(F)c4)ccc23)c(C(F)(F)F)cc2c1nc(C)n2C` (single isomer, unassigned) [Example 61-2, (E)-N-(2,6-difluoro-4-(8-(4-methoxy-1,2-dimethyl-6-(trifluoromethyl)-1H-benzo[d]imidazol-5-yl)indolizine-3-carbonyl)phenyl)-4-((tetrahydro-2H-pyran-4-yl)amino)but-2-enamide], for which, in assay [1], the binding rate result is “A (A binding rate of 80% or more is rated “A”)”. In addition, the IC50 in assay [2] came out at 28 nM; with MIA PaCa-2 cells it was 10 nM.

With `CO[C@H]1CC[C@H](NC/C=C/C(=O)Nc2c(F)cc(C(=O)c3ccc4c(-c5c(C(C)C)cc6c(nc(C)n6C)c5Cl)cccn34)cc2F)CC1` (single isomer, unassigned) [Example 71-1, (E)-N-(4-(8-(4-chloro-6-isopropyl-1,2-dimethyl-1H-benzo[d]imidazol-5-yl)indolizine-3-carbonyl)-2,6-difluorophenyl)-4-(((1r,4r)-4-methoxycyclohexyl)amino)but-2-enamide], the binding rate result in assay [1] was “A (A binding rate of 80% or more is rated “A”)”. The values for the IC50 (in assay [2]; in the assay on MIA PaCa-2 cells) were 43 nM and 130 nM, respectively.

On to `CO[C@H]1CC[C@H](NC/C=C/C(=O)Nc2c(F)cc(C(=O)c3ccc4c(-c5c(C(C)C)cc6c(nc(C)n6C)c5Cl)cccn34)cc2F)CC1` (single isomer, unassigned) [Example 71-2, (E)-N-(4-(8-(4-chloro-6-isopropyl-1,2-dimethyl-1H-benzo[d]imidazol-5-yl)indolizine-3-carbonyl)-2,6-difluorophenyl)-4-(((1r,4r)-4-methoxycyclohexyl)amino)but-2-enamide], for which the binding rate result in assay [1] was “A (A binding rate of 80% or more is rated “A”)”. Also, the IC50 was determined as 220 nM in assay [2] and 570 nM with MIA PaCa-2 cells.

Regarding `COc1c(-c2cccn3c(C(=O)c4cc(F)c(NC(=O)/C=C/CN[C@H]5CC[C@H](OC)CC5)c(F)c4)cnc23)c(C(F)(F)F)cc2c1nc(C)n2C` (single isomer, unassigned) [Example 83-1, (E)-N-(2,6-difluoro-4-(8-(4-methoxy-1,2-dimethyl-6-(trifluoromethyl)-1H-benzo[d]imidazol-5-yl)imidazo[1,2-a]pyridine-3-carbonyl)phenyl)-4-(((1r,4r)-4-methoxycyclohexyl)amino)but-2-enamide], in assay [1], the binding rate entry is listed as “A (A binding rate of 80% or more is rated “A”)”. The IC50 (in assay [2]; with MIA PaCa-2 cells) was 16 nM each time.

As to `COc1c(-c2cccn3c(C(=O)c4cc(F)c(NC(=O)/C=C/CN[C@H]5CC[C@H](OC)CC5)c(F)c4)cnc23)c(C(F)(F)F)cc2c1nc(C)n2C` (single isomer, unassigned) [Example 83-2, (E)-N-(2,6-difluoro-4-(8-(4-methoxy-1,2-dimethyl-6-(trifluoromethyl)-1H-benzo[d]imidazol-5-yl)imidazo[1,2-a]pyridine-3-carbonyl)phenyl)-4-(((1r,4r)-4-methoxycyclohexyl)amino)but-2-enamide], the binding rate result in assay [1] is “B (a binding rate of 60% or more and less than 80% is rated “B”)”. Moreover, the results for the IC50 (in assay [2]; in the assay with MIA PaCa-2 cells) were 920 nM and 850 nM, respectively.

Regarding `CCc1nc2c(-c3c(C(F)(F)F)cc4c(nc(C)n4C)c3OC)cccn2c1C(=O)c1cc(F)c(NC(=O)/C=C/CN[C@H]2CC[C@H](OC)CC2)c(F)c1` (single isomer, unassigned) [Example 102-1, (E)-N-(4-(2-ethyl-8-(4-methoxy-1,2-dimethyl-6-(trifluoromethyl)-1H-benzo[d]imidazol-5-yl)imidazo[1,2-a]pyridine-3-carbonyl)-2,6-difluorophenyl)-4-(((1r,4r)-4-methoxycyclohexyl)amino)but-2-enamide], in assay [1], the binding rate result is reported as “A (A binding rate of 80% or more is rated “A”)”. Further, the IC50 in assay [2] stood at 57.2 nM; in the assay with MIA PaCa-2 cells, 20.1 nM.

As for `CCc1nc2c(-c3c(C(F)(F)F)cc4c(nc(C)n4C)c3OC)cccn2c1C(=O)c1cc(F)c(NC(=O)/C=C/CN[C@H]2CC[C@H](OC)CC2)c(F)c1` (single isomer, unassigned) [Example 102-2, (E)-N-(4-(2-ethyl-8-(4-methoxy-1,2-dimethyl-6-(trifluoromethyl)-1H-benzo[d]imidazol-5-yl)imidazo[1,2-a]pyridine-3-carbonyl)-2,6-difluorophenyl)-4-(((1r,4r)-4-methoxycyclohexyl)amino)but-2-enamide], the binding rate result in assay [1] was “C (a binding rate of 40% or more and less than 60% is rated “C”)”. In addition, the figures for the IC50 (in assay [2]; with MIA PaCa-2 cells) were 2440 nM and 1460 nM, respectively.

As for `COc1c(-c2cccn3c(C(=O)c4cc(F)c(NC(=O)/C=C/CNC5(C)CC5)c(F)c4)cnc23)c(C(F)(F)F)cc2c1nc(C)n2C` (single isomer, unassigned) [Example 105-1, (E)-N-(2,6-difluoro-4-(8-(4-methoxy-1,2-dimethyl-6-(trifluoromethyl)-1H-benzo[d]imidazol-5-yl)imidazo[1,2-a]pyridine-3-carbonyl)phenyl)-4-((1-methylcyclopropyl)amino)but-2-enamide], in assay [1], the binding rate result was “A (A binding rate of 80% or more is rated “A”)”. The IC50 turned out to be 29.8 nM in assay [2] and 23.1 nM in the assay with MIA PaCa-2 cells.

For `COc1c(-c2cccn3c(C(=O)c4cc(F)c(NC(=O)/C=C/CNC5(C)CC5)c(F)c4)cnc23)c(C(F)(F)F)cc2c1nc(C)n2C` (single isomer, unassigned) [Example 105-2, (E)-N-(2,6-difluoro-4-(8-(4-methoxy-1,2-dimethyl-6-(trifluoromethyl)-1H-benzo[d]imidazol-5-yl)imidazo[1,2-a]pyridine-3-carbonyl)phenyl)-4-((1-methylcyclopropyl)amino)but-2-enamide], the binding rate result in assay [1] is “C (a binding rate of 40% or more and less than 60% is rated “C”)”. Moreover, the results for the half-inhibitory concentration (IC50) (in assay [2]; in the assay with MIA PaCa-2 cells) were 1450 nM and 943 nM, respectively.

For `COc1c(-c2cccn3c(C(=O)c4cc(F)c(NC(=O)/C=C/CNC5(C)CC5)c(F)c4)c(C)nc23)c(C(F)(F)F)cc2c1nc(C)n2C` (single isomer, unassigned) [Example 109-1, (E)-N-(2,6-difluoro-4(8-(4-methoxy-1,2-dimethyl-6-(trifluoromethyl)-1H-benzo[d]imidazol-5-yl)-2-methylimidazo[1,2-a]pyridine-3-carbonyl)phenyl)-4-((1-methylcyclopropyl)amino)but-2-enamide], the binding rate result in assay [1] is given as “A (A binding rate of 80% or more is rated “A”)”. Moreover, the values for the half-inhibitory concentration (IC50) (in assay [2]; in the assay with MIA PaCa-2 cells) were 19.2 nM and 21.6 nM, respectively.

With `COc1c(-c2cccn3c(C(=O)c4cc(F)c(NC(=O)/C=C/CNC5(C)CC5)c(F)c4)c(C)nc23)c(C(F)(F)F)cc2c1nc(C)n2C` (single isomer, unassigned) [Example 109-2, (E)-N-(2,6-difluoro-4(8-(4-methoxy-1,2-dimethyl-6-(trifluoromethyl)-1H-benzo[d]imidazol-5-yl)-2-methylimidazo[1,2-a]pyridine-3-carbonyl)phenyl)-4-((1-methylcyclopropyl)amino)but-2-enamide], the binding rate result in assay [1] was “D (a binding rate of 20% or more and less than 40% is rated “D”)”. In addition, the 50% inhibitory concentration (IC50) amounted to 1210 nM in assay [2] and 784 nM in the assay with MIA PaCa-2 cells.

As for `C=Cc1cc(C(=O)c2cc(F)c(NC(=O)/C=C/CNC3(C)CC3)c(F)c2)n2cccc(-c3c(OC)cc4c(nc(C)n4C)c3F)c12` (single isomer, unassigned) [Example 111-1, (E)-N-(2,6-difluoro-4-(8-(4-fluoro-6-methoxy-1,2-dimethyl-1H-benzo[d]imidazol-5-yl)-1-vinylindolizine-3-carbonyl)phenyl)-44-((1-methylcyclopropyl)amino)but-2-enamide], in assay [1], the binding rate result is listed as “A (A binding rate of 80% or more is rated “A”)”. The IC50 worked out at 8.71 nM in assay [2] and 46.5 nM in the assay on MIA PaCa-2 cells.

Consider `C=Cc1cc(C(=O)c2cc(F)c(NC(=O)/C=C/CNC3(C)CC3)c(F)c2)n2cccc(-c3c(OC)cc4c(nc(C)n4C)c3F)c12` (single isomer, unassigned) [Example 111-2, (E)-N-(2,6-difluoro-4-(8-(4-fluoro-6-methoxy-1,2-dimethyl-1H-benzo[d]imidazol-5-yl)-1-vinylindolizine-3-carbonyl)phenyl)-44-((1-methylcyclopropyl)amino)but-2-enamide], for which, in assay [1], the binding rate entry was “A (A binding rate of 80% or more is rated “A”)”. Further, the IC50 in assay [2] amounted to 17.4 nM; with MIA PaCa-2 cells, 191 nM.
